Data published in patent US20210115104A1, “AMYLIN ANALOGUES” (Zealand Pharma A/S, priority 2015, published 2021).
*1 amine or outer side, *2 acyl side, *3 side chain or, on linkers, in order; H or OH if unused. Where a SMILES comes first, the peptide text is derived from it. Bridges are numbered along the chain shown (N, C = ends). [ ]: non-standard residue; d: D form. The star is where a group is joined. C20 diacid = O=C(O)CCCCCCCCCCCCCCCCCCC(=O)*; γGlu = O=C(O)[C@H](CCC(=O)[*:2])N[*:1]; Hyp = O=C(O)[C@@H]1C[C@@H](O)CN1; NMeI = CC[C@H](C)[C@H](NC)C(=O)O; Aad = N[C@@H](CCCC(=O)O)C(=O)O; Sar = CNCC(=O)O

Tests used:
[1] = biological target: T1, human calcitonin receptor (hCTR2) (Homo sapiens, UniProt P30988); test: hCTR2 cAMP assay (AlphaScreen) in COS7 cells; assay type: cell-based; conditions: cAMP induction, COS7 cells expressing hCTR2; Table 1; read-out: hCTR2 EC50
T1 construct: expressed in transfected cells
T1 sequence (P30988 25-474): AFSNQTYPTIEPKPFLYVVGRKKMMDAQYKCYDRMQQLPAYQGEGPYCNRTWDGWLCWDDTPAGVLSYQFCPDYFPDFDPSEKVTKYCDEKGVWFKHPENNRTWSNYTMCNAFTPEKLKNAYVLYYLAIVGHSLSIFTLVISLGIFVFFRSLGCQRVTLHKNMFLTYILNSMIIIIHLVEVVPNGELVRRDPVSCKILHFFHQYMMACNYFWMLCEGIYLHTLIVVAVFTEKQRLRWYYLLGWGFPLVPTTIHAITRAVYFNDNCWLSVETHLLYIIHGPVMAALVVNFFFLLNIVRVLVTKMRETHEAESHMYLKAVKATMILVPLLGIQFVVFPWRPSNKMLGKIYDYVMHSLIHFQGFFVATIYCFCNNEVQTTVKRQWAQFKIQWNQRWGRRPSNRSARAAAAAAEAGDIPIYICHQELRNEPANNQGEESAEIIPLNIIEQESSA
In short: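 cAMP induction, read by AlphaScreen after lysis, gives EC50 values via 4PL curve fitting. Peptides were applied at rising concentrations for 15 min at 37 °C, with IBMX and 0.1% casein in HEPES-buffered Tyrode pH 7.4, to COS7 cells (no endogenous RAMPs) stably expressing human CTR2.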

[2] = biological target: T2, human amylin receptor 3 (hAMYR3), hCTR2 co-expressed with hRAMP3 (Homo sapiens, UniProt O60896+P30988); test: hAMYR3 cAMP assay (AlphaScreen) in COS7 cells; assay type: cell-based; conditions: cAMP induction, COS7 cells expressing hAMYR3; Table 1; read-out: hAMYR3 EC50
T2 construct: expressed in transfected cells
T2 sequence (P30988 25-474): T1 sequence (P30988 25-474)
T2 sequence (O60896 24-148 partner): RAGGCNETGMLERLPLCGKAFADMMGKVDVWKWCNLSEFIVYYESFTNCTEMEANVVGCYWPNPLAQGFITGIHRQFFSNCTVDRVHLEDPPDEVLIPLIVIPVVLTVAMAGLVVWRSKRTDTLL
In short: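 EC50 values derive from 4PL curve fits of cAMP (AlphaScreen) in lysates of RAMP-naive COS7 cells stably carrying hCTR2 plus hRAMP3. Peptide dilution series were applied for 15 min at 37 °C in pH 7.4 Tyrode buffer containing 100 µM IBMX and 0.1% casein.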

Row | Structure (SMILES) | EC50 [1] [nM] | EC50 [2] [nM]
1 | CC[C@H](C)[C@@H](C(=O)N[C@@H](CC(C)C)C(=O)N[C@@H](CO)C(=O)N[C@@H](CO)C(=O)N[C@H](C(=O)N[C@@H](CCC(=O)O)C(=O)N[C@H](C(=O)NCC(=O)N[C@@H](CO)C(=O)N[C@H](C(=O)N[C@H](C(=O)N1C[C@H](O)C[C@H]1C(N)=O)[C@@H](C)O)[C@@H](C)O)C(C)C)[C@@H](C)O)N(C)C(=O)[C@H](C)NC(=O)CN(C)C(=O)[C@H](Cc1ccccc1)NC(=O)[C@H](CO)NC(=O)[C@H](CO)NC(=O)[C@H](CCCNC(=N)N)NC(=O)[C@H](CCC(N)=O)NC(=O)[C@H](CC(C)C)NC(=O)[C@H](Cc1ccccc1)NC(=O)[C@H](Cc1c[nH]cn1)NC(=O)[C@H](C)NC(=O)[C@H](CC(C)C)NC(=O)[C@H](CCCNC(=N)N)NC(=O)[C@H](CCC(N)=O)NC(=O)[C@@H](NC(=O)[C@H](C)NC(=O)[C@@H]1CSSC[C@H](NC(=O)[C@H](CCCNC(=N)N)NC(=O)CC[C@H](NC(=O)CCCCCCCCCCCCCCCCCCC(=O)O)C(=O)O)C(=O)N[C@@H](CC(N)=O)C(=O)N[C@@H]([C@@H](C)O)C(=O)N[C@@H](C)C(=O)N[C@@H]([C@@H](C)O)C(=O)N1)[C@@H](C)O [Compound 73, [19CD]-isoGlu-R-C( )-NTAT-C( )-ATQRLAHFLQRSSF-Gly(Me)-A-Ile(Me)-LSSTEVGSTT-Hyp-NH2] ({C20 diacid-γGlu}-RCNTATCATQRLAHFLQRSSF[Sar]A[NMeI]LSSTEVGSTT[Hyp]-NH2; disulfide 2-7) | 0.12 | 0.24
2 | CC[C@H](C)[C@@H](C(=O)N[C@@H](CC(C)C)C(=O)N[C@@H](CO)C(=O)N[C@@H](CO)C(=O)N[C@H](C(=O)N[C@@H](CCC(=O)O)C(=O)N[C@H](C(=O)NCC(=O)N[C@@H](CO)C(=O)N[C@@H](CCCC(=O)O)C(=O)N[C@H](C(=O)N1C[C@H](O)C[C@H]1C(N)=O)[C@@H](C)O)C(C)C)[C@@H](C)O)N(C)C(=O)[C@H](C)NC(=O)CN(C)C(=O)[C@H](Cc1ccccc1)NC(=O)[C@H](CO)NC(=O)[C@H](CO)NC(=O)[C@H](CCCNC(=N)N)NC(=O)[C@H](CCC(N)=O)NC(=O)[C@H](CC(C)C)NC(=O)[C@H](Cc1ccccc1)NC(=O)[C@H](Cc1c[nH]cn1)NC(=O)[C@H](C)NC(=O)[C@H](CC(C)C)NC(=O)[C@H](CCCNC(=N)N)NC(=O)[C@H](CCC(N)=O)NC(=O)[C@@H](NC(=O)[C@H](C)NC(=O)[C@@H]1CSSC[C@H](NC(=O)[C@H](CCCNC(=N)N)NC(=O)CC[C@H](NC(=O)CCCCCCCCCCCCCCCCCCC(=O)O)C(=O)O)C(=O)N[C@@H](CC(N)=O)C(=O)N[C@@H]([C@@H](C)O)C(=O)N[C@@H](C)C(=O)N[C@@H]([C@@H](C)O)C(=O)N1)[C@@H](C)O [Compound 75, [19CD]-isoGlu-R-C( )-NTAT-C( )-ATQRLAHFLQRSSF-Gly(Me)-A-Ile(Me)-LSSTEVGS-Aad-T-Hyp-NH2] ({C20 diacid-γGlu}-RCNTATCATQRLAHFLQRSSF[Sar]A[NMeI]LSSTEVGS[Aad]T[Hyp]-NH2; disulfide 2-7) | 0.36 | 0.26
3 | CC[C@H](C)[C@@H](C(=O)N[C@@H](CC(C)C)C(=O)N[C@@H](CO)C(=O)N[C@@H](CO)C(=O)N[C@H](C(=O)N[C@@H](CCC(=O)O)C(=O)N[C@H](C(=O)NCC(=O)N[C@@H](CO)C(=O)N[C@@H](CC(N)=O)C(=O)N[C@H](C(=O)N1CCC[C@H]1C(N)=O)[C@@H](C)O)C(C)C)[C@@H](C)O)N(C)C(=O)[C@H](C)NC(=O)CN(C)C(=O)[C@H](Cc1ccccc1)NC(=O)[C@H](CO)NC(=O)[C@H](CO)NC(=O)[C@H](CCCNC(=N)N)NC(=O)[C@H](CCC(N)=O)NC(=O)[C@H](CC(C)C)NC(=O)[C@H](Cc1ccccc1)NC(=O)[C@H](Cc1c[nH]cn1)NC(=O)[C@H](C)NC(=O)[C@H](CC(C)C)NC(=O)[C@H](CCCNC(=N)N)NC(=O)[C@H](CCC(=O)O)NC(=O)[C@@H](NC(=O)[C@H](C)NC(=O)[C@@H]1CSSC[C@H](NC(=O)[C@H](CCCNC(=N)N)NC(=O)CC[C@H](NC(=O)CCCCCCCCCCCCCCCCCCC(=O)O)C(=O)O)C(=O)NCC(=O)N[C@@H]([C@@H](C)O)C(=O)N[C@@H](C)C(=O)N[C@@H]([C@@H](C)O)C(=O)N1)[C@@H](C)O [Compound 78, [19CD]-isoGlu-R-C( )-GTAT-C( )-ATERLAHFLQRSSF-Gly(Me)-A-Ile(Me)-LSSTEVGSNTP-NH2] ({C20 diacid-γGlu}-RCGTATCATERLAHFLQRSSF[Sar]A[NMeI]LSSTEVGSNTP-NH2; disulfide 2-7) | 0.15 | 0.24
4 | CC[C@H](C)[C@@H](C(=O)N[C@@H](CC(C)C)C(=O)N[C@@H](CO)C(=O)N[C@@H](CO)C(=O)N[C@H](C(=O)N[C@@H](CCC(=O)O)C(=O)N[C@H](C(=O)NCC(=O)N[C@@H](CO)C(=O)N[C@H](C(=O)N[C@H](C(=O)N1CCC[C@H]1C(N)=O)[C@@H](C)O)[C@@H](C)O)C(C)C)[C@@H](C)O)N(C)C(=O)[C@H](C)NC(=O)CN(C)C(=O)[C@H](Cc1ccccc1)NC(=O)[C@H](CO)NC(=O)[C@H](CO)NC(=O)[C@H](CCCNC(=N)N)NC(=O)[C@H](CCC(N)=O)NC(=O)[C@H](CC(C)C)NC(=O)[C@H](Cc1ccccc1)NC(=O)[C@H](CC(=O)O)NC(=O)[C@H](C)NC(=O)[C@H](CC(C)C)NC(=O)[C@H](CCCNC(=N)N)NC(=O)[C@H](CCC(N)=O)NC(=O)[C@@H](NC(=O)[C@H](C)NC(=O)[C@@H]1CSSC[C@H](NC(=O)[C@H](CCCNC(=N)N)NC(=O)CC[C@H](NC(=O)CCCCCCCCCCCCCCCCCCC(=O)O)C(=O)O)C(=O)N[C@@H](CC(N)=O)C(=O)N[C@@H]([C@@H](C)O)C(=O)N[C@@H](C)C(=O)N[C@@H]([C@@H](C)O)C(=O)N1)[C@@H](C)O [Compound 82, [19CD]-isoGlu-R-C( )-NTAT-C( )-ATQRLADFLQRSSF-Gly(Me)-A-Ile(Me)-LSSTEVGSTTP-NH2] ({C20 diacid-γGlu}-RCNTATCATQRLADFLQRSSF[Sar]A[NMeI]LSSTEVGSTTP-NH2; disulfide 2-7) | 0.21 | 0.53
5 | CC[C@H](C)[C@@H](C(=O)N[C@@H](CC(C)C)C(=O)N[C@@H](CO)C(=O)N[C@@H](CO)C(=O)N[C@H](C(=O)N[C@@H](CCC(=O)O)C(=O)N[C@H](C(=O)NCC(=O)N[C@@H](CO)C(=O)N[C@H](C(=O)N[C@H](C(=O)N1C[C@H](O)C[C@H]1C(N)=O)[C@@H](C)O)[C@@H](C)O)C(C)C)[C@@H](C)O)N(C)C(=O)[C@H](C)NC(=O)CN(C)C(=O)[C@H](Cc1ccccc1)NC(=O)[C@H](CO)NC(=O)[C@H](CO)NC(=O)[C@H](CCCNC(=N)N)NC(=O)[C@H](CCC(N)=O)NC(=O)[C@H](CC(C)C)NC(=O)[C@H](Cc1ccccc1)NC(=O)[C@H](CC(=O)O)NC(=O)[C@H](C)NC(=O)[C@H](CC(C)C)NC(=O)[C@H](CCCNC(=N)N)NC(=O)[C@H](CCC(N)=O)NC(=O)[C@@H](NC(=O)[C@H](C)NC(=O)[C@@H]1CSSC[C@H](NC(=O)[C@H](CCCNC(=N)N)NC(=O)CC[C@H](NC(=O)CCCCCCCCCCCCCCCCCCC(=O)O)C(=O)O)C(=O)N[C@@H](CC(N)=O)C(=O)N[C@@H]([C@@H](C)O)C(=O)N[C@@H](C)C(=O)N[C@@H]([C@@H](C)O)C(=O)N1)[C@@H](C)O [Compound 83, [19CD]-isoGlu-R-C( )-NTAT-C( )-ATQRLADFLQRSSF-Gly(Me)-A-Ile(Me)-LSSTEVGSTT-Hyp-NH2] ({C20 diacid-γGlu}-RCNTATCATQRLADFLQRSSF[Sar]A[NMeI]LSSTEVGSTT[Hyp]-NH2; disulfide 2-7) | 0.13 | 0.32
6 | CC[C@H](C)[C@@H](C(=O)N[C@@H](CC(C)C)C(=O)N[C@@H](CO)C(=O)N[C@@H](CO)C(=O)N[C@H](C(=O)N[C@@H](CCC(=O)O)C(=O)N[C@H](C(=O)NCC(=O)N[C@@H](CO)C(=O)N[C@@H](CO)C(=O)N[C@H](C(=O)N1CCC[C@H]1C(N)=O)[C@@H](C)O)C(C)C)[C@@H](C)O)N(C)C(=O)[C@H](C)NC(=O)CN(C)C(=O)[C@H](Cc1ccccc1)NC(=O)[C@H](CO)NC(=O)[C@H](CO)NC(=O)[C@H](CCCNC(=N)N)NC(=O)[C@H](CCC(N)=O)NC(=O)[C@H](CC(C)C)NC(=O)[C@H](Cc1ccccc1)NC(=O)[C@H](Cc1c[nH]cn1)NC(=O)[C@H](C)NC(=O)[C@H](CC(C)C)NC(=O)[C@H](CCCNC(=N)N)NC(=O)[C@H](CCC(N)=O)NC(=O)[C@@H](NC(=O)[C@H](C)NC(=O)[C@@H]1CSSC[C@H](NC(=O)[C@H](CCCNC(=N)N)NC(=O)CC[C@H](NC(=O)CCCCCCCCCCCCCCCCCCC(=O)O)C(=O)O)C(=O)N[C@@H](CC(N)=O)C(=O)N[C@@H]([C@@H](C)O)C(=O)N[C@@H](C)C(=O)N[C@@H]([C@@H](C)O)C(=O)N1)[C@@H](C)O [Compound 85, [19CD]-isoGlu-R-C( )-NTAT-C( )-ATQRLAHFLQRSSF-Gly(Me)-A-Ile(Me)-LSSTEVGSSTP-NH2] ({C20 diacid-γGlu}-RCNTATCATQRLAHFLQRSSF[Sar]A[NMeI]LSSTEVGSSTP-NH2; disulfide 2-7) | 0.1 | 0.14
